Reference: patent US9359345B2, “Thiazole derivatives as inhibitors of Bruton's tyrosine kinase” (Hoffmann-La Roche Inc., priority 2012, dated 2016)
pIC50: −log10 of the molar value.

molecular target: Bruton's Tyrosine Kinase (BTK), inactivated state (Homo sapiens (Human), UniProt Q06187); experiment: Bruton's Tyrosine Kinase (BTK) Inhibition TR-FRET (Time Resolved FRET) competition assay; assay type: binding; conditions: Kinase Tracer 178, BTK-Eu, 18-24 h at 14° C.
Experimental: Bruton's Tyrosine Kinase (BTK) Inhibition TR-FRET (Time Resolved FRET) Assay
This BTK competition assay measures compound potency (IC50) for the inactivated state of Bruton's Tyrosine Kinase using FRET (Forster/Fluorescence Resonance Energy Transfer) technology. The BTK-Eu complex was incubated on ice one hour prior to use at a starting concentration of 50 nM BTK-Bioease™: 10 nM Eu-streptavidin (Perkin-Elmer Catalog# AD0062). The assay buffer consisted of 20 mM HEPES (pH 7.15), 0.1 mM DTT, 10 mM MgCl2, 0.5 mg/ml BSA with 3% Kinase Stabilizer (Fremont Biosolutions, Catalog # STB-K02). After 1 h, the reaction mixture from above was diluted 10 fold in assay buffer to make 5 nM BTK: 1 nM Eu-Streptavidin complex (donor fluorophore). 18 μl of a mixture of 0.11 nM BTK-Eu and 0.11 nM Kinase Tracer 178 (Invitrogen, Catalog # PV5593,) with BTK-Eu alone as no negative control, was then dispensed into 384-well flat bottom plates (Greiner, 784076). Compounds to be tested in assay were prepared as 10× concentrations and serial dilution in half-log increments was performed in DMSO so as to generate 10 point curves. To initiate the FRET reaction, compounds prepared as 10× stock in DMSO was added to the plates and the plates were incubated 18-24 h at 14° C.
After the incubation the plates were read on a BMG Pherastar Fluorescent plate reader (or equivalent) and used to measure the emission energy from the europium donor fluorophore (620 nm emission) and the FRET (665 nm emission). The negative control well values were averaged to obtain the mean minimum. The positive “no inhibitor” control wells were averaged to obtain the mean maximum. Percent of maximal FRET was calculated using following equation: % max FRET=100×[(FSRcmpd−FSRmean min)/(FSRmean max−FSRmean min)] where FSR=FRET Signal ratio. % Max FRET curves were plotted in Activity Base (Excel) and the IC50(%), hill slope, z′ and % CV were determined. The mean IC50 and standard deviation will be derived from duplicate curves (singlet inhibition curves from two independent dilutions) using Microsoft Excel.

Chain of Bruton's Tyrosine Kinase (BTK), inactivated state (Q06187 whole entry): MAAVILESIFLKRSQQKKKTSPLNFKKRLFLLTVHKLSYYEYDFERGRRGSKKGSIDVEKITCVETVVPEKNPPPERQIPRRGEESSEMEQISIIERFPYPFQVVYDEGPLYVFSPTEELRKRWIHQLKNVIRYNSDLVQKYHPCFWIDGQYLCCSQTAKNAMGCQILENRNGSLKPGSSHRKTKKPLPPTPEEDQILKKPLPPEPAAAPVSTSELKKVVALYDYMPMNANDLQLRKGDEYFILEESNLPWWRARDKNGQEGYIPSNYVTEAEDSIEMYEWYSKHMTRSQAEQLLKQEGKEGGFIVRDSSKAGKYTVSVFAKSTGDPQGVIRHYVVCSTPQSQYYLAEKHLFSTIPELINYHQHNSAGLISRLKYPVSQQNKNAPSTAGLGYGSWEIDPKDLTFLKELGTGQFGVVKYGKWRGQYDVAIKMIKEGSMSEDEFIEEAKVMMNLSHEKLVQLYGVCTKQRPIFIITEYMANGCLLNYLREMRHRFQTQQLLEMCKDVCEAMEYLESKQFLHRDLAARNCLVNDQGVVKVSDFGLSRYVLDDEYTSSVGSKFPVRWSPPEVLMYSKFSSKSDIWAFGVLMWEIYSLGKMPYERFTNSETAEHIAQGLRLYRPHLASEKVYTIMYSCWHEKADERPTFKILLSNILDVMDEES

Row | Compound | pIC50
1 | NC(=O)c1nc(N2CCC[C@@H](NC(=O)Cc3ccccc3)C2)sc1Nc1ccccn1 [Compound 5, 2-((R)-3-Phenylacetylamino-piperidin-1-yl)-5-(pyridin-2-ylamino)-thiazole-4-carboxylic acid amide] | 5.21
2 | CC(C)(C)c1ccc(C(=O)N[C@@H]2CCCN(c3nc(C(N)=O)c(Nc4ccccn4)s3)C2)cn1 [Compound 4, 6-tert-Butyl-N-{(R)-1-[4-carbamoyl-5-(pyridin-2-ylamino)-thiazol-2-yl]-piperidin-3-yl}-nicotinamide] | 5.76
3 | Cc1cccc(CC(=O)N[C@@H]2CCCN(c3nc(C(N)=O)c(Nc4ccccn4)s3)C2)c1 [Compound 6, 5-(Pyridin-2-ylamino)-2-[(R)-3-(2-m-tolyl-acetylamino)-piperidin-1-yl]-thiazole-4-carboxylic acid amide] | 5.12
4 | NC(=O)c1nc(N2CCC[C@@H](NS(=O)(=O)c3ccccc3)C2)sc1Nc1ccccn1 [Compound 9, 2-((R)-3-Benzenesulfonylamino-piperidin-1-yl)-5-(pyridin-2-ylamino)-thiazole-4-carboxylic acid amide] | 5.79
5 | CC(C)(C)c1ccc(C(=O)N[C@@H]2CCCN(c3nc(C(N)=O)c(Nc4ccccn4)s3)C2)cc1 [Compound 7, 2-[(R)-3-(4-tert-Butyl-benzoylamino)-piperidin-1-yl]-5-(pyridin-2-ylamino)-thiazole-4-carboxylic acid amide] | 6.33
6 | CC(C)(C)OC(=O)N[C@@H]1CCCN(c2nc(C(N)=O)c(Nc3ccccn3)s2)C1 [Compound 3, {(R)-1-[4-Carbamoyl-5-(pyridin-2-ylamino)-thiazol-2-yl]-piperidin-3-yl}-carbamic acid tert-butyl ester] | 5.92
7 | CC(C)S(=O)(=O)N[C@@H]1CCCN(c2nc(C(N)=O)c(Nc3ccccn3)s2)C1 [Compound 10, 2-[(R)-3-(Propane-2-sulfonylamino)-piperidin-1-yl]-5-(pyridin-2-ylamino)-thiazole-4-carboxylic acid amide] | 5.24
8 | CS(=O)(=O)N[C@@H]1CCCN(c2nc(C(N)=O)c(Nc3ccccn3)s2)C1 [Compound 8, 2-((R)-3-Methanesulfonylamino-piperidin-1-yl)-5-(pyridin-2-ylamino)-thiazole-4-carboxylic acid amide] | 5.30
9 | NC(=O)c1nc(N2CCC[C@@H](NC(=O)N3Cc4ccc(Cl)cc4C3)C2)sc1Nc1ccccn1 [Compound 2, 5-Chloro-1,3-dihydro-isoindole-2-carboxylic acid {(R)-1-[4-carbamoyl-5-(pyridin-2-ylamino)-thiazol-2-yl]-piperidin-3-yl}-amide] | 5.11
10 | CC(=O)N[C@@H]1CCCN(c2nc(C(N)=O)c(Nc3ccccn3)s2)C1 [Compound 12, 2-((R)-3-Acetylamino-piperidin-1-yl)-5-(pyridin-2-ylamino)-thiazole-4-carboxylic acid amide] | 5.22
